The source of these data is publication PMC8576438, “Identification and Functional Analysis of G Protein-Coupled Receptors in 20-Hydroxyecdysone Signaling From the Helicoverpa armigera Genome” (Frontiers in Cell and Developmental Biology, 2021).

The test deals with T1, prolactin-releasing peptide receptor (PRRPR).
T1 construct: full ORF (XP_021184170.1) fused to GFP (PRRPR-GFP), in membranes of overexpressing HaEpi cells
Description: saturation binding to membranes of PRRPR-GFP-overexpressing HaEpi cells, bound […] quantified by enzyme immunoassay ([…]-EIA). On the set-up: species or system Helicoverpa armigera.

A word on the Kd: it is the free concentration of one partner at which half of the binding sites on the other are occupied at equilibrium, for simple one-to-one binding. A low value points to tighter binding.

Take `CC(C)(O)CC[C@@H](O)[C@](C)(O)[C@H]1CC[C@@]2(O)C3=CC(=O)[C@@H]4C[C@@H](O)[C@@H](O)C[C@]4(C)[C@H]3CC[C@]12C` [20E, 20-hydroxyecdysone]: binding was put at a Kd of 0.0128 ± 0.00219 µM.
